Values of other authors, collected in US11576886B2, “Constructs comprising fatty acids” (POLYREM LIMITED, priority 2017, dated 2023).

tested on: Wnt/β-catenin signalling

Row | Structure (SMILES) | Wnt/β-catenin signalling
1 | CNCCC(Oc1ccc(C(F)(F)F)cc1)c1ccccc1 (centres unmarked) [Fluoxetine] | increase Wnt/β-catenin signalling
2 | COCCCC/C(=N\OCCN)c1ccc(C(F)(F)F)cc1 [Fluvoxamine] | increase Wnt/β-catenin signalling
3 | O=C(CCCN1CCC(O)(c2ccc(Cl)cc2)CC1)c1ccc(F)cc1 [Haloperidol] | increase Wnt/β-catenin signalling
4 | Cc1nc2n(c(=O)c1CCN1CCC(c3noc4cc(F)ccc34)CC1)CCCC2 [Risperidone] | increase Wnt/β-catenin signalling
5 | COc1ccc(C(CN(C)C)C2(O)CCCCC2)cc1 (centres unmarked) [Venlafaxine] | increase Wnt/β-catenin signalling
